In patent US20260262643A1, “HERBICIDAL BENZOXAZINES” (FMC CORPORATION, priority 2022, published 2026):

Experiments:
[1] = test system: corn; assay: Test A preemergence; type: in vivo, Zea mays
In short: (§1)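 Visual injury ratings on a 0–100 scale (100 = complete control) versus untreated controls, taken 10 days after treatment in greenhouse. Preemergence: directed soil spray onto seeded loam/sand. Postemergence: foliar application at one- to two-leaf stage, plants 2–10 cm. Formulation: non-phytotoxic solvent plus surfactant.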

[2] = test system: wheat; assay: Test A postemergence; type: in vivo, Triticum aestivum; conditions: postemergence, 10 days
In short: as §1

[3] = test system: kochia; assay: Test A postemergence; type: in vivo, Bassia scoparia; conditions: postemergence, 10 days
In short: as §1

[4] = test system: horseweed; assay: Test A postemergence; type: in vivo, Erigeron canadensis; conditions: postemergence, 10 days
In short: as §1

[5] = test system: oat, wild; assay: Test A preemergence; type: in vivo, Avena fatua
In short: as §1

[6] = test system: ryegrass, Italian; assay: Test A postemergence; type: in vivo, Lolium multiflorum; conditions: postemergence, 10 days
In short: as §1

[7] = test system: ragweed; assay: Test A postemergence; type: in vivo, Ambrosia artemisiifolia; conditions: postemergence, 10 days
In short: as §1

[8] = test system: ryegrass, Italian; assay: Test A preemergence; type: in vivo, Lolium multiflorum
In short: as §1

[9] = test system: goosegrass; assay: Test A postemergence; type: in vivo, Eleusine indica; conditions: postemergence, 10 days
In short: as §1

[10] = test system: sedge, umbrella; assay: Test B flooded paddy test; type: in vivo, Cyperus difformis; conditions: 250 g ai/ha, Flood, 13 days, 0 to 100 scale (0 no effect, 100 complete control)
In short: (§2)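 Species grown to 2-leaf stage; pots flooded 3 cm above soil and compound applied directly to paddy water, depth maintained throughout. After 13 days in greenhouse, plants visually rated against controls on 0–100 scale (0 no effect, 100 complete control); dash means no result.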

[11] = test system: foxtail, giant; assay: Test A preemergence; type: in vivo, Setaria faberi
In short: as §1

[12] = test system: wheat; assay: Test A preemergence; type: in vivo, Triticum aestivum
In short: as §1

[13] = test system: ducksalad; assay: Test B flooded paddy test; type: in vivo, Heteranthera limosa; conditions: 250 g ai/ha, Flood, 13 days, 0 to 100 scale (0 no effect, 100 complete control)
In short: as §2

[14] = test system: soybean; assay: Test A postemergence; type: in vivo, Glycine max; conditions: postemergence, 10 days
In short: as §1

[15] = test system: soybean; assay: Test A preemergence; type: in vivo, Glycine max
In short: as §1

[16] = test system: blackgrass; assay: Test A preemergence; type: in vivo, Alopecurus myosuroides
In short: as §1

[17] = test system: rice; assay: Test B flooded paddy test; type: in vivo, Oryza sativa; conditions: 250 g ai/ha, Flood, 13 days, 0 to 100 scale (0 no effect, 100 complete control)
In short: as §2

[18] = test system: blackgrass; assay: Test A postemergence; type: in vivo, Alopecurus myosuroides; conditions: postemergence, 10 days
In short: as §1

[19] = test system: barnyardgrass; assay: Test B flooded paddy test; type: in vivo, Echinochloa crus-galli; conditions: 250 g ai/ha, Flood, 13 days, 0 to 100 scale (0 no effect, 100 complete control)
In short: as §2

[20] = test system: pigweed, palmer; assay: Test A preemergence; type: in vivo, Amaranthus palmeri
In short: as §1

[21] = test system: pigweed, palmer; assay: Test A postemergence; type: in vivo, Amaranthus palmeri; conditions: postemergence, 10 days
In short: as §1

[22] = test system: goosegrass; assay: Test A preemergence; type: in vivo, Eleusine indica
In short: as §1

[23] = test system: foxtail, giant; assay: Test A postemergence; type: in vivo, Setaria faberi; conditions: postemergence, 10 days
In short: as §1

[24] = test system: corn; assay: Test A postemergence; type: in vivo, Zea mays; conditions: postemergence, 10 days
In short: as §1

[25] = test system: ragweed; assay: Test A preemergence; type: in vivo, Ambrosia artemisiifolia
In short: as §1

[26] = test system: oat, wild; assay: Test A postemergence; type: in vivo, Avena fatua; conditions: postemergence, 10 days
In short: as §1

[27] = test system: kochia; assay: Test A preemergence; type: in vivo, Bassia scoparia
In short: as §1

[28] = 125 g ai/ha, visual injury after 10 days, 0 to 100 scale, 0 is no effect, 100 is complete control
[29] = 500 g ai/ha, 0 to 100 scale (0 no effect, 100 complete control), 10 days
[30] = 125 g ai/ha, 0 to 100 scale, 0 no effect, 100 complete control
[31] = 500 g ai/ha, visual injury, 0 to 100 scale (0 no effect, 100 complete control)

SMILES: C[C@H]1CN(C(=O)c2cccc(-n3cnc(Br)n3)c2)c2cccc(Cl)c2O1 [Compound 85]
- Plant response rating, Corn [1, 28]: 0
- Plant response rating, Corn [1, 29]: 0
- Wheat plant response rating [2, 30]: 0
- Plant response rating, Wheat [2, 31]: 10
- Kochia plant response rating [3, 30]: 60
- Plant response rating, Kochia [3, 31]: 90
- Horseweed plant response rating [4, 30]: 20
- Plant response rating, Horseweed [4, 31]: 50
- Plant response rating, Oat, Wild [5, 28]: 0
- Plant response rating, Oat, Wild [5, 29]: 10
- Ryegrass, Italian plant response rating [6, 30]: 10
- Plant response rating, Ryegrass, Italian [6, 31]: 70
- Ragweed plant response rating [7, 30]: 0
- Plant response rating, Ragweed [7, 31]: 20
- Plant response rating, Ryegrass, Italian [8, 28]: 90
- Plant response rating, Ryegrass, Italian [8, 29]: 90
- Goosegrass plant response rating [9, 30]: 0
- Plant response rating, Goosegrass [9, 31]: 30
- Plant response rating, Sedge, Umbrella [10]: 0
- Plant response rating, Foxtail, Giant [11, 28]: 30
- Plant response rating, Foxtail, Giant [11, 29]: 90
- Plant response rating, Wheat [12, 28]: 0
- Plant response rating, Wheat [12, 29]: 0
- Plant response rating, Ducksalad [13]: 0
- Soybean plant response rating [14, 30]: 100
- Plant response rating, Soybean [14, 31]: 100
- Plant response rating, Soybean [15, 28]: 0
- Plant response rating, Soybean [15, 29]: 0
- Plant response rating, Blackgrass [16, 28]: 0
- Plant response rating, Blackgrass [16, 29]: 30
- Plant response rating, Rice [17]: 0
- Blackgrass plant response rating [18, 30]: 30
- Plant response rating, Blackgrass [18, 31]: 50
- Plant response rating, Barnyardgrass [19]: 0
- Plant response rating, Pigweed, Palmer [20, 28]: 70
- Plant response rating, Pigweed, Palmer [20, 29]: 60
- Pigweed, Palmer plant response rating [21, 30]: 70
- Plant response rating, Pigweed, Palmer [21, 31]: 80
- Plant response rating, Goosegrass [22, 28]: 80
- Plant response rating, Goosegrass [22, 29]: 100
- Foxtail, Giant plant response rating [23, 30]: 20
- Plant response rating, Foxtail, Giant [23, 31]: 40
- Corn plant response rating [24, 30]: 10
- Plant response rating, Corn [24, 31]: 10
- Plant response rating, Ragweed [25, 28]: 0
- Plant response rating, Ragweed [25, 29]: 0
- Oat, Wild plant response rating [26, 30]: 20
- Plant response rating, Oat, Wild [26, 31]: 30
- Plant response rating, Kochia [27, 28]: 20
- Plant response rating, Kochia [27, 29]: 80
